# Laboratory results: ChEMBL document CHEMBL5724914, “Linking interpersonal differences in gut microbiota composition and drug biotransformation activity” (2024)
# Experiment: (§1) The drug is tested on Z-006 corresponding to mouse gut metagenome with ENA study accession number: PRJEB37062 and ENA sample accession number: ERS12561806 for biotransformation under anaerobic condition. The drug concentrations were measured over 9 timepoints collected between 0 and 24 hours of incubation by liquid-chromatography-coupled mass spectrometry (LC–MS)
# Conditions: 2 µM
# Further: call rule not given here.
row,SMILES,Bacterial Biotransformation
1,O=P(O)(O)O.c1ccc(CN(CC2=NCCN2)c2ccccc2)cc1 [ANTAZOLINE PHOSPHATE],Compound NOT metabolized
2,Cc1ccnc2c1NC(=O)c1cccnc1N2C1CC1 [NEVIRAPINE],Compound NOT metabolized
3,CCc1nn(CCCN2CCN(c3cccc(Cl)c3)CC2)c(=O)n1CCOc1ccccc1 [NEFAZODONE],Compound NOT metabolized
4,Cc1nc(-c2ccc(OCC(C)C)c(C#N)c2)sc1C(=O)O [FEBUXOSTAT],Compound NOT metabolized

# Experiment: as §1, with “Z-025” for “Z-006”, “rabbit” for “mouse”, “ERS12561824” for “ERS12561806”
# Conditions: 2 µM
row,SMILES,Bacterial Biotransformation
1,O=P(O)(O)O.c1ccc(CN(CC2=NCCN2)c2ccccc2)cc1 [ANTAZOLINE PHOSPHATE],Compound NOT metabolized
2,Cc1ccnc2c1NC(=O)c1cccnc1N2C1CC1 [NEVIRAPINE],Compound NOT metabolized
3,CCc1nn(CCCN2CCN(c3cccc(Cl)c3)CC2)c(=O)n1CCOc1ccccc1 [NEFAZODONE],Compound NOT metabolized
4,Cc1nc(-c2ccc(OCC(C)C)c(C#N)c2)sc1C(=O)O [FEBUXOSTAT],Compound NOT metabolized

# Experiment: as §1, with “WLS-039” for “Z-006”, “human” for “mouse”, “ERS12561746” for “ERS12561806”
# Conditions: 2 µM
row,SMILES,Bacterial Biotransformation
1,O=P(O)(O)O.c1ccc(CN(CC2=NCCN2)c2ccccc2)cc1 [ANTAZOLINE PHOSPHATE],Compound NOT metabolized
2,Cc1ccnc2c1NC(=O)c1cccnc1N2C1CC1 [NEVIRAPINE],Compound NOT metabolized
3,CCc1nn(CCCN2CCN(c3cccc(Cl)c3)CC2)c(=O)n1CCOc1ccccc1 [NEFAZODONE],Compound metabolized
4,Cc1nc(-c2ccc(OCC(C)C)c(C#N)c2)sc1C(=O)O [FEBUXOSTAT],Compound metabolized

# Conditions: human gut metagenome, 24 h, 2 µM
row,SMILES,Bacterial Biotransformation
1,O=P(O)(O)O.c1ccc(CN(CC2=NCCN2)c2ccccc2)cc1 [ANTAZOLINE PHOSPHATE],Compound NOT metabolized
2,Cc1ccnc2c1NC(=O)c1cccnc1N2C1CC1 [NEVIRAPINE],Compound NOT metabolized
3,CCc1nn(CCCN2CCN(c3cccc(Cl)c3)CC2)c(=O)n1CCOc1ccccc1 [NEFAZODONE],Compound NOT metabolized
4,Cc1nc(-c2ccc(OCC(C)C)c(C#N)c2)sc1C(=O)O [FEBUXOSTAT],Compound metabolized

# Conditions: human gut metagenome, 24 h, 2 µM
# Remark: another data set of the same source
row,SMILES,Bacterial Biotransformation
1,O=P(O)(O)O.c1ccc(CN(CC2=NCCN2)c2ccccc2)cc1 [ANTAZOLINE PHOSPHATE],Compound metabolized
2,Cc1ccnc2c1NC(=O)c1cccnc1N2C1CC1 [NEVIRAPINE],Compound metabolized
3,CCc1nn(CCCN2CCN(c3cccc(Cl)c3)CC2)c(=O)n1CCOc1ccccc1 [NEFAZODONE],Compound metabolized
4,Cc1nc(-c2ccc(OCC(C)C)c(C#N)c2)sc1C(=O)O [FEBUXOSTAT],Compound metabolized

# Conditions: human gut metagenome, 24 h, 2 µM
# Remark: another data set of the same source
row,SMILES,Bacterial Biotransformation
1,O=P(O)(O)O.c1ccc(CN(CC2=NCCN2)c2ccccc2)cc1 [ANTAZOLINE PHOSPHATE],Compound metabolized
2,Cc1ccnc2c1NC(=O)c1cccnc1N2C1CC1 [NEVIRAPINE],Compound metabolized
3,CCc1nn(CCCN2CCN(c3cccc(Cl)c3)CC2)c(=O)n1CCOc1ccccc1 [NEFAZODONE],Compound metabolized
4,Cc1nc(-c2ccc(OCC(C)C)c(C#N)c2)sc1C(=O)O [FEBUXOSTAT],Compound metabolized

# Experiment: as §1, with “WLS-010” for “Z-006”, “human” for “mouse”, “ERS12561743” for “ERS12561806”
# Conditions: 2 µM
row,SMILES,Bacterial Biotransformation
1,O=P(O)(O)O.c1ccc(CN(CC2=NCCN2)c2ccccc2)cc1 [ANTAZOLINE PHOSPHATE],Compound NOT metabolized
2,Cc1ccnc2c1NC(=O)c1cccnc1N2C1CC1 [NEVIRAPINE],Compound NOT metabolized
3,CCc1nn(CCCN2CCN(c3cccc(Cl)c3)CC2)c(=O)n1CCOc1ccccc1 [NEFAZODONE],Compound metabolized
4,Cc1nc(-c2ccc(OCC(C)C)c(C#N)c2)sc1C(=O)O [FEBUXOSTAT],Compound metabolized

# Experiment: as §1, with “Z-022” for “Z-006”, “ERS12561821” for “ERS12561806”
# Conditions: 2 µM
row,SMILES,Bacterial Biotransformation
1,O=P(O)(O)O.c1ccc(CN(CC2=NCCN2)c2ccccc2)cc1 [ANTAZOLINE PHOSPHATE],Compound NOT metabolized
2,Cc1ccnc2c1NC(=O)c1cccnc1N2C1CC1 [NEVIRAPINE],Compound NOT metabolized
3,CCc1nn(CCCN2CCN(c3cccc(Cl)c3)CC2)c(=O)n1CCOc1ccccc1 [NEFAZODONE],Compound NOT metabolized
4,Cc1nc(-c2ccc(OCC(C)C)c(C#N)c2)sc1C(=O)O [FEBUXOSTAT],Compound metabolized

# Conditions: human gut metagenome, 24 h, 2 µM
# Remark: another data set of the same source
row,SMILES,Bacterial Biotransformation
1,O=P(O)(O)O.c1ccc(CN(CC2=NCCN2)c2ccccc2)cc1 [ANTAZOLINE PHOSPHATE],Compound NOT metabolized
2,Cc1ccnc2c1NC(=O)c1cccnc1N2C1CC1 [NEVIRAPINE],Compound metabolized
3,CCc1nn(CCCN2CCN(c3cccc(Cl)c3)CC2)c(=O)n1CCOc1ccccc1 [NEFAZODONE],Compound metabolized
4,Cc1nc(-c2ccc(OCC(C)C)c(C#N)c2)sc1C(=O)O [FEBUXOSTAT],Compound metabolized

# Experiment: as §1, with “WLS-098” for “Z-006”, “human” for “mouse”, “ERS12561754” for “ERS12561806”
# Conditions: 2 µM
row,SMILES,Bacterial Biotransformation
1,O=P(O)(O)O.c1ccc(CN(CC2=NCCN2)c2ccccc2)cc1 [ANTAZOLINE PHOSPHATE],Compound metabolized
2,Cc1ccnc2c1NC(=O)c1cccnc1N2C1CC1 [NEVIRAPINE],Compound metabolized
3,CCc1nn(CCCN2CCN(c3cccc(Cl)c3)CC2)c(=O)n1CCOc1ccccc1 [NEFAZODONE],Compound metabolized
4,Cc1nc(-c2ccc(OCC(C)C)c(C#N)c2)sc1C(=O)O [FEBUXOSTAT],Compound metabolized

# Experiment: as §1, with “WLS-052” for “Z-006”, “human” for “mouse”, “ERS12561747” for “ERS12561806”
# Conditions: 2 µM
row,SMILES,Bacterial Biotransformation
1,O=P(O)(O)O.c1ccc(CN(CC2=NCCN2)c2ccccc2)cc1 [ANTAZOLINE PHOSPHATE],Compound NOT metabolized
2,Cc1ccnc2c1NC(=O)c1cccnc1N2C1CC1 [NEVIRAPINE],Compound NOT metabolized
3,CCc1nn(CCCN2CCN(c3cccc(Cl)c3)CC2)c(=O)n1CCOc1ccccc1 [NEFAZODONE],Compound metabolized
4,Cc1nc(-c2ccc(OCC(C)C)c(C#N)c2)sc1C(=O)O [FEBUXOSTAT],Compound metabolized

# Experiment: as §1, with “Z-011” for “Z-006”, “ERS12561811” for “ERS12561806”
# Conditions: 2 µM
row,SMILES,Bacterial Biotransformation
1,O=P(O)(O)O.c1ccc(CN(CC2=NCCN2)c2ccccc2)cc1 [ANTAZOLINE PHOSPHATE],Compound NOT metabolized
2,Cc1ccnc2c1NC(=O)c1cccnc1N2C1CC1 [NEVIRAPINE],Compound NOT metabolized
3,CCc1nn(CCCN2CCN(c3cccc(Cl)c3)CC2)c(=O)n1CCOc1ccccc1 [NEFAZODONE],Compound NOT metabolized
4,Cc1nc(-c2ccc(OCC(C)C)c(C#N)c2)sc1C(=O)O [FEBUXOSTAT],Compound NOT metabolized

# Conditions: human gut metagenome, 24 h, 2 µM
# Remark: another data set of the same source
row,SMILES,Bacterial Biotransformation
1,O=P(O)(O)O.c1ccc(CN(CC2=NCCN2)c2ccccc2)cc1 [ANTAZOLINE PHOSPHATE],Compound NOT metabolized
2,Cc1ccnc2c1NC(=O)c1cccnc1N2C1CC1 [NEVIRAPINE],Compound NOT metabolized
3,CCc1nn(CCCN2CCN(c3cccc(Cl)c3)CC2)c(=O)n1CCOc1ccccc1 [NEFAZODONE],Compound NOT metabolized
4,Cc1nc(-c2ccc(OCC(C)C)c(C#N)c2)sc1C(=O)O [FEBUXOSTAT],Compound metabolized

# Experiment: as §1, with “Z-021” for “Z-006”, “to” for “to mouse gut”, “ERS12561820” for “ERS12561806”
# Conditions: 2 µM
row,SMILES,Bacterial Biotransformation
1,O=P(O)(O)O.c1ccc(CN(CC2=NCCN2)c2ccccc2)cc1 [ANTAZOLINE PHOSPHATE],Compound NOT metabolized
2,Cc1ccnc2c1NC(=O)c1cccnc1N2C1CC1 [NEVIRAPINE],Compound NOT metabolized
3,CCc1nn(CCCN2CCN(c3cccc(Cl)c3)CC2)c(=O)n1CCOc1ccccc1 [NEFAZODONE],Compound NOT metabolized
4,Cc1nc(-c2ccc(OCC(C)C)c(C#N)c2)sc1C(=O)O [FEBUXOSTAT],Compound metabolized

# Experiment: as §1, with “WLS-027” for “Z-006”, “human” for “mouse”, “ERS12561744” for “ERS12561806”
# Conditions: 2 µM
row,SMILES,Bacterial Biotransformation
1,O=P(O)(O)O.c1ccc(CN(CC2=NCCN2)c2ccccc2)cc1 [ANTAZOLINE PHOSPHATE],Compound NOT metabolized
2,Cc1ccnc2c1NC(=O)c1cccnc1N2C1CC1 [NEVIRAPINE],Compound NOT metabolized
3,CCc1nn(CCCN2CCN(c3cccc(Cl)c3)CC2)c(=O)n1CCOc1ccccc1 [NEFAZODONE],Compound metabolized
4,Cc1nc(-c2ccc(OCC(C)C)c(C#N)c2)sc1C(=O)O [FEBUXOSTAT],Compound metabolized

# Experiment: as §1, with “Z-023” for “Z-006”, “to” for “to mouse gut”, “ERS12561822” for “ERS12561806”
# Conditions: 2 µM
row,SMILES,Bacterial Biotransformation
1,O=P(O)(O)O.c1ccc(CN(CC2=NCCN2)c2ccccc2)cc1 [ANTAZOLINE PHOSPHATE],Compound NOT metabolized
2,Cc1ccnc2c1NC(=O)c1cccnc1N2C1CC1 [NEVIRAPINE],Compound metabolized
3,CCc1nn(CCCN2CCN(c3cccc(Cl)c3)CC2)c(=O)n1CCOc1ccccc1 [NEFAZODONE],Compound NOT metabolized
4,Cc1nc(-c2ccc(OCC(C)C)c(C#N)c2)sc1C(=O)O [FEBUXOSTAT],Compound metabolized

# Conditions: human gut metagenome, 24 h, 2 µM
# Remark: another data set of the same source
row,SMILES,Bacterial Biotransformation
1,O=P(O)(O)O.c1ccc(CN(CC2=NCCN2)c2ccccc2)cc1 [ANTAZOLINE PHOSPHATE],Compound NOT metabolized
2,Cc1ccnc2c1NC(=O)c1cccnc1N2C1CC1 [NEVIRAPINE],Compound NOT metabolized
3,CCc1nn(CCCN2CCN(c3cccc(Cl)c3)CC2)c(=O)n1CCOc1ccccc1 [NEFAZODONE],Compound NOT metabolized
4,Cc1nc(-c2ccc(OCC(C)C)c(C#N)c2)sc1C(=O)O [FEBUXOSTAT],Compound metabolized

# Conditions: human gut metagenome, 24 h, 2 µM
# Remark: another data set of the same source
row,SMILES,Bacterial Biotransformation
1,O=P(O)(O)O.c1ccc(CN(CC2=NCCN2)c2ccccc2)cc1 [ANTAZOLINE PHOSPHATE],Compound NOT metabolized
2,Cc1ccnc2c1NC(=O)c1cccnc1N2C1CC1 [NEVIRAPINE],Compound metabolized
3,CCc1nn(CCCN2CCN(c3cccc(Cl)c3)CC2)c(=O)n1CCOc1ccccc1 [NEFAZODONE],Compound metabolized
4,Cc1nc(-c2ccc(OCC(C)C)c(C#N)c2)sc1C(=O)O [FEBUXOSTAT],Compound metabolized

# Conditions: human gut metagenome, 24 h, 2 µM
# Remark: another data set of the same source
row,SMILES,Bacterial Biotransformation
1,O=P(O)(O)O.c1ccc(CN(CC2=NCCN2)c2ccccc2)cc1 [ANTAZOLINE PHOSPHATE],Compound NOT metabolized
2,Cc1ccnc2c1NC(=O)c1cccnc1N2C1CC1 [NEVIRAPINE],Compound NOT metabolized
3,CCc1nn(CCCN2CCN(c3cccc(Cl)c3)CC2)c(=O)n1CCOc1ccccc1 [NEFAZODONE],Compound metabolized
4,Cc1nc(-c2ccc(OCC(C)C)c(C#N)c2)sc1C(=O)O [FEBUXOSTAT],Compound NOT metabolized

# Conditions: human gut metagenome, 24 h, 2 µM
# Remark: another data set of the same source
row,SMILES,Bacterial Biotransformation
1,O=P(O)(O)O.c1ccc(CN(CC2=NCCN2)c2ccccc2)cc1 [ANTAZOLINE PHOSPHATE],Compound NOT metabolized
2,Cc1ccnc2c1NC(=O)c1cccnc1N2C1CC1 [NEVIRAPINE],Compound NOT metabolized
3,CCc1nn(CCCN2CCN(c3cccc(Cl)c3)CC2)c(=O)n1CCOc1ccccc1 [NEFAZODONE],Compound metabolized
4,Cc1nc(-c2ccc(OCC(C)C)c(C#N)c2)sc1C(=O)O [FEBUXOSTAT],Compound metabolized
